What all share (experiment): inhibition of tumour cell growth, NCI panel, 48 h
Test [1] relates to RPMI-8226 leukemia.
Test [2] deals with SF-268 CNS.
Test [3] deals with OVCAR-5 ovarian.
Test [4] deals with CAKI-1 renal.
Test [5] concerns MOLT-4 leukemia.
The subject of test [6] is SF-295 CNS.
Test [7] has as its system UO-31 renal.
The test system of test [8] is HS 578T breast.
Test [9] relates to 786-0 renal.
For test [10], the system named is HCT-116 colon.
Test [11] deals with RXF 393 renal.
For test [12], the system named is SK-OV-3 ovarian.
The subject of test [13] is NCI/ADR-RES ovarian.
In test [14] the test system is DU-145 prostate.
Test [15] deals with CCRF-CEM leukemia.
Test [16] deals with OVCAR-4 ovarian.
The test system of test [17] is KM12 colon.
For test [18], the system named is UACC-257 melanoma.
Test [19] deals with K-562 leukemia.

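Growth conditions: 96-well plates. Treatment: test compound, 48 hours, 5 concentrations. Analysis: linear interpolation between bracketing concentrations; unreached endpoints set to highest concentration. The concentration for full growth arrest is given as TGI.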

For `COc1ccc(-n2c(N)c(C#N)c(C#N)c2-c2ccccc2)cc1`, the TGI in test [1], in test [2], in [3], in test [4], in test [5] and in test [6] was greater than 100 µM in each case. Also, the TGI in test [7], in [8], in [9], in [10], in test [11] and in test [12] was greater than 100 µM each time. For the same compound, the TGI is greater than 100 µM in test [13]; greater than 100 µM in test [14]; greater than 100 µM in test [15]; 93.2 µM in test [16]; greater than 100 µM in test [17]; greater than 100 µM in [18].
Turning to `CC(=O)O[C@H]1C(=O)[C@@]2(C)[C@H]([C@H](OC(=O)c3ccccc3)[C@]3(O)C[C@H](OC(=O)[C@H](O)[C@@H](NC(=O)C(C)(C)C)c4ccccc4)C(C)=C1C3(C)C)[C@]1(OC(C)=O)CO[C@@H]1C[C@@H]2O`, the TGI is greater than 10 µM in test [1]; greater than 10 µM in test [2]; greater than 8.6 µM in test [3]; greater than 10 µM in test [4]; greater than 8.96 µM in test [5]; 1.61 µM in test [6]. Further, the TGI was 0.389 µM in test [8]; greater than 5.47 µM in test [9]; greater than 3.23 µM in test [10]; 2.64 µM in test [11]; 0.368 µM in test [12]; greater than 10 µM in [19]. For the same compound, the TGI in [13] was greater than 10 µM; in test [14], 0.839 µM; in test [15], greater than 10 µM; in [16], greater than 10 µM; in test [17], greater than 10 µM; in test [18], greater than 10 µM.
As for `CN(CC(=O)O)c1ncc2c(n1)-c1ccccc1OC2`, the TGI in test [1], in test [2], in [3], in test [4], in test [5] and in test [6] was greater than 100 µM throughout. Moreover, the TGI in test [7], in [8], in [9], in test [10], in [11] and in test [19] was greater than 100 µM each time. The TGI in test [13], in [14], in [15], in test [16], in [17] and in [18] was greater than 100 µM throughout.
As to `O=C(Nc1ccc(Cl)c(Cl)c1)N1N=C2c3ccccc3CCC2C1c1ccc(Cl)cc1` (stereo unspecified), the TGI in test [1], in test [2], in test [3], in [4], in [5] and in test [6] was greater than 100 µM in each case. In addition, the TGI in test [7], in test [8], in [9], in test [10], in [11] and in test [12] was greater than 100 µM throughout. The TGI in test [19], in test [13], in test [14], in test [15], in [16] and in [17] was greater than 100 µM each time. In [18], this compound showed a TGI greater than 100 µM.
Consider `CCOC(=O)C1=CC(C)(C(=O)OCC)Nc2c(nc(OC)[nH]c2=O)N1` (stereo unspecified), for which the TGI in test [1], in test [2], in test [3], in test [4], in [5] and in [6] was greater than 10 µM in each case. In addition, the TGI in test [7], in test [8], in test [9], in [10], in test [11] and in test [12] was greater than 10 µM each time. Moreover, the TGI in [19], in test [13], in test [14], in test [15], in test [16] and in [17] was greater than 10 µM throughout. The compound further displayed a TGI in test [18] greater than 10 µM.
Turning to `COC(=O)Nc1nc2ccc(NC(=O)c3cccs3)cc2[nH]1`, the TGI in test [1] was 46.4 µM; in test [2], greater than 100 µM; in test [3], greater than 100 µM; in test [4], greater than 100 µM; in test [5], greater than 100 µM; in test [6] it was greater than 100 µM. The TGI was 36.2 µM in test [7]; 44.7 µM in test [8]; greater than 100 µM in test [9]; greater than 100 µM in [10]; 86.7 µM in test [11]; greater than 100 µM in [12]. The TGI in test [19] was greater than 100 µM; in test [13] it was 55.4 µM; in test [14], greater than 100 µM; in [15] it was greater than 100 µM; in test [16], greater than 100 µM; in test [17], greater than 100 µM.
Consider `CC(=O)O[C@H]1CCC2[C@@H]3CCC4Cc5nc6c(nc5C[C@]4(C)C3CC[C@@]21C)CC1CC[C@@H]2C(CC[C@@]3(C)C2CC[C@@H]3C(C)CCCC(C)C)[C@@]1(C)C6` (stereo partly specified), for which the TGI in [1], in test [2], in test [3], in [5], in test [6] and in [7] was greater than 100 µM in each case. For the same compound, the TGI in [8], in test [9], in [10], in test [11], in test [12] and in test [19] was greater than 100 µM throughout. Besides, the TGI in test [13], in [14], in test [15], in test [16], in test [17] and in test [18] was greater than 100 µM throughout.
`NS(=O)(=O)c1ccc(Nc2c3ccccc3nc3c(C(=O)NCCO)cccc23)cc1`: the TGI is 0.337 µM in test [1]; 0.303 µM in [2]; 0.358 µM in test [3]; 0.546 µM in [4]; 0.0604 µM in test [5]; 0.605 µM in test [6]. Moreover, the TGI was determined as 0.532 µM in [7]; 0.79 µM in [8]; 0.283 µM in test [9]; 0.412 µM in test [10]; 0.237 µM in test [11]; 0.649 µM in test [12]. The TGI in test [19] was 0.887 µM; in test [13] it was greater than 1 µM; in test [14] it was 0.586 µM; in test [15] it was greater than 1 µM; in test [16] it was 0.454 µM; in test [17] it was 0.283 µM. In test [18], this compound yielded a TGI of 0.315 µM.
On to `C/C(=N\NC(=S)N(C)CCN(C)C(=S)N/N=C(\C)c1ccccn1)c1ccccn1`, for which the TGI was 23.7 µM in [1]; 12 µM in [2]; 42 µM in test [3]; 11.8 µM in test [4]; 46.3 µM in [5]; 19.6 µM in test [6]. For the same compound, the TGI in test [7] was 15.4 µM; in test [8] it was greater than 100 µM; in test [9], greater than 100 µM; in [10] it was 11.5 µM; in test [11], 3.46 µM; in [12], 20.1 µM. For the same compound, the TGI in [19] amounted to 29.1 µM; in test [13], 2.02 µM; in test [14], 13.1 µM; in [15], 12.1 µM; in [16], 14.8 µM; in [17], 14.3 µM. Further, the TGI in test [18] is 11 µM.
As for `CC(=N\N=C\c1ccccn1)/C(C)=N/N=C(C)/C(C)=N/N=C/c1ccccn1`, the TGI in [1], in test [2], in test [3], in test [4], in test [6] and in test [7] was greater than 100 µM in each case. Also, the TGI in test [8], in test [9], in test [10], in test [11], in test [12] and in [13] was greater than 100 µM throughout. Further, the TGI in [14], in [15], in test [16], in test [17] and in [18] was greater than 100 µM throughout.
Regarding `COC(=O)CSC(=S)Nc1nnc(NC(=S)SCOC(C)=O)n1C(=S)SCC(=O)OC`, the TGI in test [1], in test [2], in test [3], in test [4], in test [5] and in [6] was greater than 100 µM each time. In addition, the TGI in [7], in test [8], in [9], in [10], in [11] and in test [19] was greater than 100 µM throughout. The TGI in [13], in [14], in test [15], in test [16], in test [17] and in test [18] was greater than 100 µM throughout.
Regarding `CN1CC[C@]2(c3cccc(O)c3)CC(=O)/C(=C/c3ccc(Cl)c(Cl)c3)[C@@H]1C2`, the TGI is 0.901 µM in [1]; 3.66 µM in test [2]; 3.18 µM in test [3]; 2.32 µM in [4]; 0.71 µM in test [5]; 2.86 µM in test [6]. The TGI in test [7] worked out at 2.61 µM; in [8] it was 6.59 µM; in test [9], 2.23 µM; in [10] it was 2.47 µM; in test [11], 1.92 µM; in [19] it was 1.1 µM. In addition, the TGI in test [13] was 6.76 µM; in [14], 3.01 µM; in [15], 2.85 µM; in [17], 2.06 µM; in test [18], 2.93 µM.
Turning to `O=C(O)[C@@H]1NC[C@H]2C(Br)=NO[C@H]21`, the TGI in test [1], in test [2], in test [3], in test [4], in [5] and in test [6] was greater than 100 µM each time. The TGI in test [7], in test [8], in test [9], in [10], in [11] and in test [12] was greater than 100 µM in each case. The TGI in test [13], in test [14], in [15], in test [16], in [17] and in test [18] was greater than 100 µM each time.
As for `COc1cccc(Cc2cc(=O)c3ccc(C)nc3[nH]2)c1`, the TGI in test [1], in [2], in [3], in [4], in [5] and in test [6] was greater than 100 µM in each case. Further, the TGI in test [7], in test [8], in [9], in test [10], in [11] and in test [12] was greater than 100 µM each time. In addition, the TGI in [19], in [13], in test [14], in [15], in test [17] and in test [18] was greater than 100 µM throughout.
Take `O=c1[nH]cnc2c1ncn2[C@@H]1C[C@H]1CO`: the TGI in [1], in test [2], in [3], in test [4], in test [5] and in [7] was greater than 100 µM throughout. The TGI in test [8], in test [9], in [10], in [11], in [19] and in test [13] was greater than 100 µM throughout. Further, the TGI in [14], in test [15], in [16], in test [17] and in [18] was greater than 100 µM each time.
